Values quoted from earlier work in publication PMC3461162 (British Journal of Cancer, 2012).

Conditions: phase I, currently being investigated; no reference given; cited from earlier work

## CNC(=O)c1cccc(-c2ccc3c(N4CCOC[C@@H]4C)nc(N4CCOC[C@@H]4C)nc3n2)c1 [AZD2014]
  Rise in transaminases: no rise in transaminases has been reported
